Test results: ChEMBL document CHEMBL6092134, “N-acyl-4-arylaminopiperidines: Design and synthesis of a potential antimicrobial scaffold” (Bioorg Med Chem Lett, 2024)

Tests used:
[1] = tested on: Klebsiella pneumoniae; assay: Antibacterial activity against Klebsiella pneumoniae assessed as inhibition of bacterial growth at 50 uM by microdilution assay relative to control; type: functional
[2] = tested on: Staphylococcus aureus; assay: Antibacterial activity against methicillin-resistant Staphylococcus aureus assessed as inhibition of bacterial growth at 50 uM by microdilution assay relative to control; type: functional
[3] = tested on: Staphylococcus aureus; assay: Antibacterial activity against methicillin-resistant Staphylococcus aureus assessed as inhibition of bacterial growth by microdilution assay; type: functional, organism-based
[4] = tested on: Pseudomonas aeruginosa; assay: Antibacterial activity against Pseudomonas aeruginosa assessed as inhibition of bacterial growth at 50 uM by microdilution assay relative to control; type: functional

COc1ccc(NC2CCN(C(=O)/C=C/c3ccc4c(c3)OCCCO4)CC2)cc1
inhibition at 50 µM [1]: 30%
inhibition at 50 µM [2]: 0%
IC50 [3]: 50.1 µM
inhibition at 50 µM [4]: 0%

CC(C)c1ccc(NC2CCN(C(=O)/C=C/c3ccc4c(c3)OCCO4)CC2)cc1
inhibition at 50 µM [1]: 29%
inhibition at 50 µM [2]: 26%
inhibition at 50 µM [4]: 10%

COc1cc(/C=C/C(=O)N2CCC(Nc3ccc(OC(F)(F)F)cc3)CC2)ccc1O
inhibition at 50 µM [1]: 0%
inhibition at 50 µM [2]: 0%
inhibition at 50 µM [4]: 16%

O=C(/C=C/c1ccc2c(c1)OCO2)N1CCC(Nc2ccc(Cl)cc2)CC1
inhibition at 50 µM [1]: 32%
inhibition at 50 µM [2]: 20%
inhibition at 50 µM [4]: 13%

O=C(/C=C/c1ccc2c(c1)OCO2)N1CCC(Nc2ccccc2)CC1
inhibition at 50 µM [1]: 24%
inhibition at 50 µM [2]: 0%
inhibition at 50 µM [4]: 0%

COc1cc(/C=C/C(=O)N2CCC(Nc3ccc(C(C)C)cc3)CC2)ccc1O
inhibition at 50 µM [1]: 20%
inhibition at 50 µM [2]: 0%
inhibition at 50 µM [4]: 25%

O=C(/C=C/c1ccc2c(c1)OCCCO2)N1CCC(Nc2ccc(Cl)cc2)CC1
inhibition at 50 µM [1]: 27%
inhibition at 50 µM [2]: 0%
inhibition at 50 µM [4]: 5%

O=C(/C=C/c1ccc2c(c1)OCCCO2)N1CCC(Nc2ccccc2)CC1
inhibition at 50 µM [1]: 40%
inhibition at 50 µM [2]: 0%
inhibition at 50 µM [4]: 6%

CC(C)c1ccc(NC2CCN(C(=O)/C=C/c3ccc4c(c3)OCCCO4)CC2)cc1
inhibition at 50 µM [1]: 54%
inhibition at 50 µM [2]: 0%
inhibition at 50 µM [4]: 14%

COc1cc(/C=C/C(=O)N2CCC(Nc3cccc(Cl)c3)CC2)ccc1O
inhibition at 50 µM [1]: 0%
inhibition at 50 µM [2]: 0%
inhibition at 50 µM [4]: 14%

COc1ccc(NC2CCN(C(=O)/C=C/c3ccccc3)CC2)cc1
inhibition at 50 µM [1]: 21%
inhibition at 50 µM [2]: 15%
inhibition at 50 µM [4]: 7%

COc1cc(/C=C/C(=O)N2CCC(Nc3ccc(F)cc3)CC2)ccc1O
inhibition at 50 µM [1]: 0%
inhibition at 50 µM [2]: 0%
inhibition at 50 µM [4]: 0%

CC(C)c1ccc(NC2CCN(C(=O)/C=C/c3ccc4c(c3)OCO4)CC2)cc1
inhibition at 50 µM [1]: 28%
inhibition at 50 µM [2]: 0%
inhibition at 50 µM [4]: 27%

COc1ccc(NC2CCN(C(=O)/C=C/c3ccc(O)c(OC)c3)CC2)cc1
inhibition at 50 µM [1]: 0%
inhibition at 50 µM [2]: 4%
inhibition at 50 µM [4]: 0%

O=C(/C=C/c1ccccc1)N1CCC(Nc2ccccc2)CC1
inhibition at 50 µM [1]: 0%
inhibition at 50 µM [2]: 36%
inhibition at 50 µM [4]: 0%

COc1cc(/C=C/C(=O)N2CCC(Nc3ccccc3)CC2)ccc1O
inhibition at 50 µM [1]: 37%
inhibition at 50 µM [2]: 8%
inhibition at 50 µM [4]: 20%

O=C(/C=C/c1ccc2c(c1)OCCO2)N1CCC(Nc2ccccc2)CC1
inhibition at 50 µM [1]: 35%
inhibition at 50 µM [2]: 0%
inhibition at 50 µM [4]: 14%

COc1cc(/C=C/C(=O)N2CCC(Nc3cccc4ccccc34)CC2)ccc1O
inhibition at 50 µM [1]: 0%
inhibition at 50 µM [2]: 0%
inhibition at 50 µM [4]: 0%

COc1cc(/C=C/C(=O)N2CCC(NCc3ccccc3)CC2)ccc1O
inhibition at 50 µM [1]: 41%
inhibition at 50 µM [2]: 0%
inhibition at 50 µM [4]: 0%

COc1cc(/C=C/C(=O)N2CCC(Nc3ccc(C)cc3)CC2)ccc1O
inhibition at 50 µM [1]: 49%
inhibition at 50 µM [2]: 0%
inhibition at 50 µM [4]: 6%

COc1cc(/C=C/C(=O)N2CCC(Nc3cccc(F)c3)CC2)ccc1O
inhibition at 50 µM [1]: 29%
inhibition at 50 µM [2]: 0%
inhibition at 50 µM [4]: 4%

COc1ccc(NC2CCN(C(=O)/C=C/c3ccc4c(c3)OCCO4)CC2)cc1
inhibition at 50 µM [1]: 40%
inhibition at 50 µM [2]: 30%
inhibition at 50 µM [4]: 7%

O=C(/C=C/c1ccccc1)N1CCC(Nc2ccc(Cl)cc2)CC1
inhibition at 50 µM [1]: 38%
inhibition at 50 µM [2]: 22%
inhibition at 50 µM [4]: 37%

COc1cc(/C=C/C(=O)N2CCC(Nc3ccc(Cl)cc3)CC2)ccc1O
inhibition at 50 µM [1]: 37%
inhibition at 50 µM [2]: 0%
inhibition at 50 µM [4]: 18%

COc1ccc(NC2CCN(C(=O)/C=C/c3ccc4c(c3)OCO4)CC2)cc1
inhibition at 50 µM [1]: 44%
inhibition at 50 µM [2]: 0%
inhibition at 50 µM [4]: 0%

CC(C)c1ccc(NC2CCN(C(=O)/C=C/c3ccccc3)CC2)cc1
inhibition at 50 µM [1]: 27%
inhibition at 50 µM [2]: 42%
inhibition at 50 µM [4]: 20%

O=C(/C=C/c1ccc2c(c1)OCCO2)N1CCC(Nc2ccc(Cl)cc2)CC1
inhibition at 50 µM [1]: 19%
inhibition at 50 µM [2]: 24%
IC50 [3]: 60.5 µM
inhibition at 50 µM [4]: 10%

COc1cc(/C=C/C(=O)N2CCC(Nc3ccc4c(c3)OCCO4)CC2)ccc1O
inhibition at 50 µM [1]: 23%
inhibition at 50 µM [2]: 3%
inhibition at 50 µM [4]: 0%
